In US12558352B2, “Use of malic enzyme 1 (ME1) in preparation of drug for preventing and treating pulmonary hypertension (PH)” (Institute of Basic Medical Sciences, CAMS, priority 2022, dated 2026):

Tests used:
ME1 = target: T1, ME1 (Mus musculus, UniProt P06801); assay: Dose-finding: inhibition of ME1 enzymatic activity in lung tissue of normoxia mice after single intraperitoneal injection; assay type: in vivo; conditions: dose greater than or equal to 100 mg/kg (doses tested 1, 10, 100, 200, 500 mg/kg)
T1 construct: from tissue; host or cells: mouse lung tissue (normoxia mice, lysate after intraperitoneal dosing)
T1 sequence (P06801 1-572): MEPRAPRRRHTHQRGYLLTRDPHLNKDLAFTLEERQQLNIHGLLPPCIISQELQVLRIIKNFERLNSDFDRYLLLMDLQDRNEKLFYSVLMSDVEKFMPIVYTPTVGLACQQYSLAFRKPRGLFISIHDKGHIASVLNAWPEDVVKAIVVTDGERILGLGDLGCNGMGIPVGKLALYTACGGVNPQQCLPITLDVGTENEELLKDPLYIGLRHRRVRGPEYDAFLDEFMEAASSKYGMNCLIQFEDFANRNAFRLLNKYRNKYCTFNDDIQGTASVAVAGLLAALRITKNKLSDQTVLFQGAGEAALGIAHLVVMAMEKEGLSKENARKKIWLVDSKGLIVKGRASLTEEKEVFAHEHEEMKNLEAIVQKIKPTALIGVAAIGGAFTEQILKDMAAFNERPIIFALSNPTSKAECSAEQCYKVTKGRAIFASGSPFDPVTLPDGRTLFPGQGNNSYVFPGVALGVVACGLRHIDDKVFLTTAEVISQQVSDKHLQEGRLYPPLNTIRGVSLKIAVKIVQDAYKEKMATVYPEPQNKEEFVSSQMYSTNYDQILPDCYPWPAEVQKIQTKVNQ
Method: Histone supernatants or mitochondrial extracts were used to detect ME1 enzymatic activity. (1) Liquid preparation: an ME1 reaction buffer (pH=7.4) was prepared from 67 mM triethanolamine and 5.0 mM manganese chloride. (2) Sample preparation: a protein lysate was centrifuged at 13,000 rpm for 15 min at 4° C. (3) Adding samples: a reaction system included ME1 reaction buffer+L-malic acid (3.3 mM)+β-NADP^+ (0.3 mM)+protein lysate, with a total volume of 150 μL. (4) Reading was done with a multi-functional microplate reader, at a reading temperature maintained at 37° C., and an absorbance value was monitored at a wavelength of 340 nm every 50 s for a total of 30 min. (5) The protein concentration was determined for standardization. (6) The change of absorbance per mg of protein per unit time was calculated. In the present disclosure, normoxia mice are intraperitoneally injected with ME1*, at single injection doses of 1, 10, 100, 200, and 500 mg/kg, respectively, to explore the inhibitory effect of ME1* on the enzymatic activity of ME1 in mouse lung tissues.

SuHx-induced PH mice = assay: Preventive treatment of SuHx-induced PH mice; assay type: in vivo, mouse; conditions: compared with vehicle
Method: 8 to 10 week-old SPF-grade C57BL/6J male mice weighing 25 g to 30 g were fed in a hypoxia chamber (an oxygen concentration in the chamber was maintained at 10%) while receiving weekly subcutaneous injections of 20 mg/kg of SU5416 for 0 weeks (n=8), 1 week (n=8), 2 weeks (n=8), and 3 weeks (n=8). The mouse lung tissues were collected and assessed for RVSP and RVHI and analyzed for PAMT.
The RVSP can be used to evaluate a pulmonary artery pressure (PAP) of the mouse, and the RVHI can reflect the right ventricular involvement and right ventricular hypertrophy of the mouse due to excessive PVR. The specific operation steps were as follows: (1) After anesthetized with 2% pentobarbital sodium (50 mg/kg by intraperitoneal injection), the mice were fixed on an operating board. (2) Power Lab was started and then connected to a pressure transducer. (3) The skin of the anterior chest wall of the mouse was cut with surgical scissors to clearly expose the position of manubrium sternum. (4) A 22-gauge needle was inserted into the right ventricle (RV) at 45° along an intersection point of the manubrium sternum and the left costal margin through the closed chest, and a position of the needle tip in the heart cavity was determined by the waveform; a stable RVSP waveform was saved and an RVSP measured value were recorded through Chart program. (5) The mice were sacrificed to obtain the heart; excess connective tissue and appendages in the heart were removed, and a free wall of the right ventricle was cut; the right ventricle, left ventricle, and interventricular septum (Left ventricular+septum, LV+S) were weighed to calculate RVHI=RV/LV+S.
PAMT is used to analyze the morphological changes of pulmonary vessels. In the present disclosure, a primary antibody of α-smooth muscle actin (α-SMA), a surface marker of pulmonary vascular smooth muscle cells, was stained by immunohistochemistry, and then a percentage of PAMT was calculated to evaluate the pulmonary vascular remodeling of PH mice. […] After deparaffinized and antigen retrieval (a pH of citric acid buffer was 6.0), the section was incubated with a primary antibody against α-SMA at 4° C. overnight, and then incubated with a horseradish peroxidase-bound secondary antibody. After counterstained with hematoxylin, cell nuclei were rinsed with tap water and differentiated with 0.5% […], soaked in tap water for 15 min, routinely dehydrated, subjected to transparent treatment, sealed with glycerogelatin and photographed. Statistical analysis: pulmonary vessel thickness was measured with a diameter of (0-50) μm and (50-100) μm. At least 20 vessels with a diameter of (0-50) μm and at least 15 vessels with a diameter of (50-100) μm were assessed per mouse, and the PAMT percentage was calculated as: (outer circumference/2π-inner circumference/2π)/(outer circumference/2π)×100.
Echocardiography was conducted using a Vevo 2100 ultrasound imaging platform to evaluate the dynamic changes of blood flow in the right heart of PH mice. (1) The mice were depilated to fully expose the skin on the chest wall. (2) The mice were placed on a constant-temperature heating plate at 37° C., anesthetized with 3.0% isoflurane through the nose and mouth, and the inhalation was continued with 1.5% isoflurane after the mice were anesthetized. (3) The mice were smeared with a small amount of coupling agent on their limbs and the limbs were fixed, and dynamic changes of the body temperature, heart rate, respiration rate, and electrocardiogram for mice were continuously recorded, while ensuring that the mice were in a resting state. (4) The ultrasound probe was placed, an appropriate amount of coupling agent was added, the pulmonary artery acceleration time (PAAT), pulmonary artery ejection time (PAET), and velocity-time integral were determined at a short-axis position, and then obtained frequency spectrum was saved and added with color ultrasound. […]

[1] = Safety evaluation of preventive treatment (body weight, HE staining of organs); assay type: in vivo, mouse; conditions: 100 mg/kg intraperitoneally once a day
Method: Male SPF-grade C57BL/6J mice aged 8 to 10 weeks with a body weight of 25 g to 30 g were randomly divided into the following 4 groups: • (1) Normoxia+vehicle control group: 6 mice were fed in a normoxia environment for 3 weeks; from the second week, the mice were intraperitoneally injected with vehicle (100 mg/kg) once a day, for a total of 14 injections. • (2) Normoxia+ME1* treatment group: 6 mice were fed in a normoxia environment for 3 weeks; from the second week, the mice were intraperitoneally injected with ME1* (100 mg/kg) once a day, for a total of 14 injections. • (3) SuHx modeling+vehicle control group: 10 mice were treated with SuHx for 3 weeks (SuHx modeling method was the same as above); from the second week, the mice were intraperitoneally injected with vehicle (100 mg/kg) once a day, for a total of 14 injections. • (4) SuHx modeling+ME1* treatment group: 10 mice were treated with SuHx for 3 weeks; from the second week, the mice were intraperitoneally injected with ME1* (100 mg/kg) once a day, for a total of 14 injections. […]

[2] = 100 mg/kg intraperitoneally once a day, 14 injections
[3] = echocardiography, 100 mg/kg intraperitoneally once a day

For `O=C1CC(N2CCN(c3ccc(O)cc3)CC2)C(=O)N1c1ccccc1` (stereo not drawn) [ME1*], the “enzymatic activity of ME1 in mouse lung tissue” value (ME1) was “significantly inhibited”, the “progression of PH” value (SuHx-induced PH mice; 100 mg/kg intraperitoneally once a day from second week, 14 injections) was “significantly slowed” and the “RVHI (%)” value (SuHx-induced PH mice; [2]) was “significantly lower”. For the same compound, the RVSP (SuHx-induced PH mice; [2]) was “significantly lower”, the “PA AT/ET” value (SuHx-induced PH mice; [3]) was “significantly higher” and the TAPSE (SuHx-induced PH mice; [3]) was “significantly higher”. For the same compound, the PAMT percentage (SuHx-induced PH mice; pulmonary artery diameters 0-50 μm and 50-100 μm, 100 mg/kg intraperitoneally once a day) was “significantly lower”, the “tissue and organ damage (HE staining of lung, heart, liver, spleen, kidney, small intestine)” value ([1]; after the treatment, 14 injections) was “no obvious tissue and organ damage” and the “body weight of the mice” value ([1]; weighed every week, compared with vehicle group) was “not significantly reduced”.
